Assay [1] concerns the target T1, IDO (Homo sapiens (Human), UniProt P14902). In words: LLE_IDO_ABS_DR (IDO assay, method not described).
Assay [2] concerns the target T1, IDO. In words: Kynurenine assay in IFN-γ-stimulated Hela cells. The conditions noted are these: 20 h, read-out: Hela Kyurenine (IC50). The format is cell-based. The method, boiled down: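 Hela cells adhered 5-6 h, then received inhibitor (top dose 30 μM, 3-fold dilutions to 1.5 nM) plus 100 ng/mL human IFN-γ to induce IDO, 20 h at 37° C. TCA added, 30 min at 50° C hydrolyses N-formylkynurenine to kynurenine. Supernatant mixed with Ehrlich reagent, 10 min RT, absorbance 490 nm.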

T1 sequence (P14902 whole entry): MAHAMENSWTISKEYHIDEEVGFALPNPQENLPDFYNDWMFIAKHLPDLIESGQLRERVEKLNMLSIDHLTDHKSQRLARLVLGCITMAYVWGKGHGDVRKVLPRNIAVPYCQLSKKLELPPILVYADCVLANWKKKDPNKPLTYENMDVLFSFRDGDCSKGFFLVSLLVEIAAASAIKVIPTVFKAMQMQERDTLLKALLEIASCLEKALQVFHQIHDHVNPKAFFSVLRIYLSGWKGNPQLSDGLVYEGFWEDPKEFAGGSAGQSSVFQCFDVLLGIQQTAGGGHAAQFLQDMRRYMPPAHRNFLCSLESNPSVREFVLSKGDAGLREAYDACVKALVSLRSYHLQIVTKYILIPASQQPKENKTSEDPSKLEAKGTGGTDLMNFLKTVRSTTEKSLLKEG

In the case of `COc1ccc(-c2ccc(Oc3ccc4c(c3)CCCC4)c(NC(=O)Nc3cccc(C)c3)c2)cc1C(=O)O` [Example 147, 4-methoxy-4′-(5,6,7,8-tetrahydronaphthalen-2-yloxy)-3′-(3-m-tolylureido)biphenyl-3-carboxylic acid], the IC50 on IDO [1] stood at 1320 nM; on IDO [2], 460 nM.
Take `COc1ccc(-c2ccc(Oc3ccccc3C(C)(C)C)c(NC(=O)Nc3ccc(C)cc3)c2)c(C(=O)O)c1` [Example 163, 4′-(2-tert-butylphenoxy)-4-methoxy-3′-(3-p-tolylureido)biphenyl-2-carboxylic acid]: the figures for the IC50 at IDO [1] and on IDO [2] were 470 nM and 160 nM, respectively.
Regarding `COc1ccc(-c2ccc(Oc3ccccc3C(C)(C)C)c(NC(=O)Nc3ccccc3Cl)c2)c(C(=O)O)c1` [Example 164, 4′-(2-tert-butylphenoxy)-3′-(3-(2-chlorophenyl)ureido)-4-methoxybiphenyl-2-carboxylic acid], the IC50 was found to be 330 nM at IDO [1] and 280 nM on IDO [2].
As to `COc1ccc(-c2ccc(Oc3cccc4c3CCC4)c(NC(=O)Nc3cccc(C)c3)c2)cc1C(=O)O` [Example 144, 4′-(2,3-dihydro-1H-inden-4-yloxy)-4-methoxy-3′-(3-m-tolylureido)biphenyl-3-carboxylic acid], the IC50 worked out at 510 nM at IDO [1] and 150 nM at IDO [2].
On the same counts, the results for `CCCc1ccccc1Oc1ccc(-c2ccc(OC)c(C(=O)O)c2)cc1NC(=O)Nc1cccc(C)c1` [Example 76, 4-methoxy-4′-(2-propylphenoxy)-3′-(3-m-tolylureido)biphenyl-3-carboxylic acid] are 2040 nM and 600 nM.
With `COc1ccc(-c2ccc(O[C@@H]3CCCC[C@H]3C)c(NC(=O)Nc3cccc(C)c3)c2)cc1C(=O)O` (relative stereo) [Example 138, 4-methoxy-4′-((trans)-2-methylcyclohexyloxy)-3′-(3-m-tolylureido)biphenyl-3-carboxylic acid], the figures for the IC50 against IDO [1] and on IDO [2] were 2340 nM and 390 nM, respectively.
`Cc1ccccc1NC(=O)Nc1cc(-c2ccccc2-c2nnn[nH]2)ccc1Oc1cccc2c1CCCC2` [Example 187, 1-(4-(5,6,7,8-tetrahydronaphthalen-1-yloxy)-2′-(1H-tetrazol-5-yl)biphenyl-3-yl)-3-o-tolylurea]: the IC50 came out at 2330 nM against IDO [1] and 860 nM at IDO [2].
For the compound `COc1ccc(-c2ccc(Oc3ccccc3C(C)(C)C)c(NC(=O)Nc3cccc(C)c3)c2)cc1C(=O)O` [Example 45, 4′-(2-tert-butylphenoxy)-4-methoxy-3′-(3-m-tolylureido)biphenyl-3-carboxylic acid], the IC50 on IDO [1] stood at 390 nM; at IDO [2] it was 150 nM.
As to `O=C(Nc1ccccc1F)Nc1cc(-c2ccccc2-c2nnn[nH]2)ccc1Oc1cccc2c1CCCC2` [Example 188, 1-(2-fluorophenyl)-3-(4-(5,6,7,8-tetrahydronaphthalen-1-yloxy)-2′-(1H-tetrazol-5-yl)biphenyl-3-yl)urea], the values for the IC50 on IDO [1] and at IDO [2] were 1830 nM and 870 nM, respectively.
For `Cc1ccccc1NC(=O)Nc1cc(-c2ccccc2C(=O)O)ccc1Oc1ccccc1C(C)(C)C` [Example 156, 4′-(2-tert-butylphenoxy)-3′-(3-o-tolylureido)biphenyl-2-carboxylic acid], the values for the IC50 against IDO [1] and on IDO [2] were 680 nM and 640 nM, respectively.
On to `CC(C)(C)c1ccccc1Oc1ccc(-c2ccc(Cl)cc2C(=O)O)cc1NC(=O)Nc1ccccc1Cl` [Example 158, 4′-(2-tert-butylphenoxy)-4-chloro-3′-(3-(2-chlorophenyl)ureido)biphenyl-2-carboxylic acid], for which the values for the IC50 against IDO [1] and on IDO [2] were 4060 nM and 860 nM, respectively.
`COc1ccc(-c2ccc(Oc3ccccc3C(C)(C)C)c(NC(=O)Nc3ccc(OC(F)(F)F)cc3)c2)cc1C(=O)O` [Example 66, 4′-(2-tert-butylphenoxy)-4-methoxy-3′-(3-(4-(trifluoromethoxy)phenyl)ureido)biphenyl-3-carboxylic acid]: the IC50 against IDO [1] came to 1590 nM; at IDO [2] it was 820 nM.
On to `COc1ccc(-c2ccc(Oc3cccc4c3CCCC4=O)c(NC(=O)Nc3ccccc3Cl)c2)cc1C(=O)O` [Example 149, 3′-(3-(2-chlorophenyl)ureido)-4-methoxy-4′-(5-oxo-5,6,7,8-tetrahydronaphthalen-1-yloxy)biphenyl-3-carboxylic acid], for which the IC50 was found to be 2050 nM at IDO [1] and 530 nM at IDO [2].
In the case of `COc1ccc(-c2cnc(Oc3ccccc3C(C)(C)C)c(NC(=O)Nc3cccc(C)c3)c2)cc1C(=O)O` [Example 334], the figures for the IC50 at IDO [1] and on IDO [2] were 16700 nM and 380 nM, respectively.
With `Cc1ccccc1NC(=O)Nc1cc(-c2cccc(Cl)c2C(=O)O)ccc1Oc1ccccc1C(C)(C)C` [Example 173, 4′-(2-tert-butylphenoxy)-3-chloro-3′-(3-o-tolylureido)biphenyl-2-carboxylic acid], the results for the IC50 against IDO [1] and on IDO [2] were 3070 nM and 1630 nM, respectively.
As to `COc1ccc(-c2ccc(Oc3c(C)cccc3C(C)(C)C)c(NC(=O)Nc3cccc(C)c3)c2)cc1C(=O)O` [Example 60, 4′-(2-tert-butyl-6-methylphenoxy)-4-methoxy-3′-(3-m-tolylureido)biphenyl-3-carboxylic acid], the figures for the IC50 against IDO [1] and at IDO [2] were 1150 nM and 310 nM, respectively.
Consider `COc1ccc(-c2ccc(Oc3cccc4c3CCCC4=O)c(NC(=O)Nc3ccccc3C)c2)cc1C(=O)O` [Example 150, 4-methoxy-4′-(5-oxo-5,6,7,8-tetrahydronaphthalen-1-yloxy)-3′-(3-o-tolylureido)biphenyl-3-carboxylic acid], for which the IC50 was determined as 7190 nM at IDO [1] and 710 nM at IDO [2].
On to `Cc1ccc(NC(=O)Nc2cc(-c3cc(Cl)ccc3C(=O)O)ccc2Oc2ccccc2C(C)(C)C)cc1` [Example 168, 4′-(2-tert-butylphenoxy)-5-chloro-3′-(3-p-tolylureido)biphenyl-2-carboxylic acid], for which the values for the 50% inhibitory concentration (IC50) against IDO [1] and at IDO [2] were 660 nM and 240 nM, respectively.
On to `CC(C)(C)c1ccccc1Oc1ccc(-c2ccc(C(=O)O)c(Cl)c2)cc1NC(=O)Nc1ccccc1Cl` [Example 215, 4′-(2-tert-butylphenoxy)-3-chloro-3′-(3-(2-chlorophenyl)ureido)biphenyl-4-carboxylic acid], for which the IC50 amounted to 1830 nM against IDO [1] and 300 nM on IDO [2].
With `COc1ccc(-c2ccc(Oc3cccc4ccccc34)c(NC(=O)Nc3ccccc3Cl)c2)cc1C(=O)O` [Example 128, 3′-(3-(2-chlorophenyl)ureido)-4-methoxy-4′-(naphthalen-1-yloxy)biphenyl-3-carboxylic acid], the results for the IC50 against IDO [1] and at IDO [2] were 250 nM and 40 nM, respectively.
On to `COc1ccc(-c2ccc(Oc3cccc4c3CCCC4)c(NC(=O)Nc3ccc(F)cc3F)c2)cc1C(=O)O` [Example 154, 3′-(3-(2,4-difluorophenyl)ureido)-4-methoxy-4′-(5,6,7,8-tetrahydronaphthalen-1-yloxy)biphenyl-3-carboxylic acid], for which the IC50 at IDO [1] stood at 540 nM; on IDO [2], 140 nM.
Consider `Cc1ccccc1NC(=O)Nc1cc(-c2cccc(F)c2C(=O)O)ccc1Oc1ccccc1C(C)(C)C` [Example 175, 4′-(2-tert-butylphenoxy)-3-fluoro-3′-(3-o-tolylureido)biphenyl-2-carboxylic acid], for which the IC50 is 2580 nM against IDO [1] and 1480 nM at IDO [2].
Regarding `COc1ccc(-c2ccc(Oc3ccccc3C(C)C)c(NC(=O)Nc3ccccc3C)c2)cc1C(=O)O` [Example 64, 4′-(2-isopropylphenoxy)-4-methoxy-3′-(3-o-tolylureido)biphenyl-3-carboxylic acid], the results for the IC50 against IDO [1] and on IDO [2] were 640 nM and 180 nM, respectively.
Turning to `CCc1ccccc1Oc1ccc(-c2ccc(OC)c(C(=O)O)c2)cc1NC(=O)Nc1cccc(Cl)c1` [Example 58, 3′-(3-(3-chlorophenyl)ureido)-4′-(2-ethylphenoxy)-4-methoxybiphenyl-3-carboxylic acid], the values for the IC50 against IDO [1] and at IDO [2] were 770 nM and 240 nM, respectively.
For the compound `Cc1ccc(NC(=O)Nc2cc(-c3cccc(F)c3C(=O)O)ccc2Oc2ccccc2C(C)(C)C)cc1` [Example 171, 4′-(2-tert-butylphenoxy)-3-fluoro-3′-(3-p-tolylureido)biphenyl-2-carboxylic acid], the IC50 was 310 nM against IDO [1] and 90 nM at IDO [2].
The matching figures for `COc1ccc(-c2ccc(Oc3ccccc3C(C)(C)C)c(NC(=O)Nc3ccccc3Cl)c2)c(-c2nnn[nH]2)c1` [Example 192, 1-(4-(2-tert-butylphenoxy)-4′-methoxy-2′-(1H-tetrazol-5-yl)biphenyl-3-yl)-3-(2-chlorophenyl)urea]: 1440 nM and 370 nM.
Consider `Cc1cccc(NC(=O)Nc2cc(-c3ccc(C(=O)O)cc3)ccc2Oc2ccccc2C(C)(C)C)c1` [Example 201, 4′-(2-tert-butylphenoxy)-3′-(3-m-tolylureido) biphenyl-4-carboxylic acid], for which the IC50 turned out to be 8150 nM on IDO [1] and 780 nM on IDO [2].
On to `CC(C)(C)c1ccccc1Oc1ccc(-c2ccc(F)cc2C(=O)O)cc1NC(=O)Nc1ccccc1Cl` [Example 169, 4′-(2-tert-butylphenoxy)-3′-(3-(2-chlorophenyl)ureido)-4-fluorobiphenyl-2-carboxylic acid], for which the IC50 amounted to 2340 nM against IDO [1] and 660 nM at IDO [2].
On the same counts, the results for `CC(C)(C)c1ccccc1Oc1ccc(-c2ccccc2-c2nnn[nH]2)cc1NC(=O)Nc1ccccc1F` [Example 190, 1-(4-(2-tert-butylphenoxy)-2′-(1H-tetrazol-5-yl)biphenyl-3-yl)-3-(2-fluorophenyl)urea] are 450 nM and 170 nM.
Take `COc1ccc(-c2ccc(Oc3cccc4ccccc34)c(NC(=O)Nc3cccc(C)c3)c2)cc1C(=O)O` [Example 130, 4-methoxy-4′-(naphthalen-1-yloxy)-3′-(3-m-tolylureido)biphenyl-3-carboxylic acid]: the IC50 at IDO [1] stood at 480 nM; on IDO [2], 120 nM.
